Reference: US3984393A, “Aminoglycoside antibiotics” (The Upjohn Company, priority 1975, dated 1976)
Converted amounts (≈) assume the structure as drawn.

Key:
B. cereus = assay: standard disc plate assay, 12.5 mm paper discs (zone of inhibition), B. cereus; format: cell-based, Bacillus cereus
Source text: The novel intermediates, disclosed herein, are useful to make novel aminoglycoside antibiotics. These novel aminoglycoside antibiotics are antibacterially active, and, thus, they can be used in various environments to eradicate or control sensitive bacteria. Following are in vitro antibacterial test results for representative compounds of the subject invention. The results were obtained with a standard disc plate assay using 12.5 mm paper discs.

S. aureus UC 76 = assay: standard microplate test in BHI Agar (MIC), S. aureus UC 76; format: cell-based, Staphylococcus aureus; details: Staphylococcus aureus, UC76, 20 h, S. aureus UC 76; retest table, group (9), (11), (7α), neamine control; read-out: Minimum Inhibitory Concentration
Procedure: (§1) Compounds were also tested in a standard microplate test in Brain Heart Infusion (BHI) Agar, at a concentration of 1 mg/ml. Incubation is at 37° and end points are read at 20 hours. Brain Heart Infusion Agar (supplied by Difco Laboratories, Detroit, Michigan, U.S.A.) has the following composition:
(§2) Compounds (7β), (7α) and (9) were tested again along with compounds (11) and (14β) against a neamine control using the same conditions as given above.

S. hemolyticus UC 152 = assay: standard microplate test in BHI Agar (MIC), S. hemolyticus UC 152; format: cell-based, Streptococcus hemolyticus; details: Streptococcus pyogenes, UC152, 20 h; S. hemolyticus UC 152; retest table, group (9), (11), (7α), neamine control; read-out: Minimum Inhibitory Concentration
Procedure: as §1, §2

St. faecalis UC 694 = assay: standard microplate test in BHI Agar (MIC), St. faecalis UC 694; format: cell-based; details: Enterococcus faecalis, UC694, 20 h, S. faecalis UC 694; retest table, group (9), (11), (7α), neamine control; read-out: Minimum Inhibitory Concentration
Procedure: as §1, §2

E. coli UC 45 = assay: standard microplate test in BHI Agar (MIC), E. coli UC 45; format: cell-based; details: Escherichia coli, UC45, 20 h, E. coli UC 45; retest table, group (9), (11), (7α), neamine control; read-out: Minimum Inhibitory Concentration
Procedure: as §1, §2

P. vulgaris UC 93 = assay: standard microplate test in BHI Agar (MIC), P. vulgaris UC 93; format: cell-based; details: Proteus vulgaris, UC93, 20 h, P. vulgaris UC 93; retest table, group (9), (11), (7α), neamine control; read-out: Minimum Inhibitory Concentration
Procedure: as §1, §2

K. pneumoniae UC 58 = assay: standard microplate test in BHI Agar (MIC), K. pneumoniae UC 58; format: cell-based; details: Klebsiella pneumoniae, UC58, 20 h; K. pneumoniae UC 58; retest table, group (9), (11), (7α), neamine control; read-out: Minimum Inhibitory Concentration
Procedure: as §1, §2

Ps. aeruginosa UC 95 = assay: standard microplate test in BHI Agar (MIC), Ps. aeruginosa UC 95; format: cell-based; details: Pseudomonas aeruginosa, UC95, 20 h, Ps. aeruginosa UC 95; retest table, group (9), (11), (7α), neamine control; read-out: Minimum Inhibitory Concentration
Procedure: as §1, §2

D. pneumoniae UC 41 = assay: standard microplate test in BHI Agar (MIC), D. pneumoniae UC 41; format: cell-based; details: Streptococcus pneumoniae, UC41, 20 h, D. pneumoniae UC 41; retest table, group (9), (11), (7α), neamine control; read-out: Minimum Inhibitory Concentration
Procedure: as §1, §2

P. mirabilis A-63 = assay: standard microplate test in BHI Agar (MIC), P. mirabilis A-63; format: cell-based; details: Proteus mirabilis, A63, 20 h; P. mirabilis A-63; retest table, group (9), (11), (7α), neamine control; read-out: Minimum Inhibitory Concentration
Procedure: as §1, §2

P. morgani UC 3186 = assay: standard microplate test in BHI Agar (MIC), P. morgani UC 3186; format: cell-based; details: 20 h; P. morgani UC 3186; retest table, group (9), (11), (7α), neamine control; read-out: Minimum Inhibitory Concentration
Procedure: as §1, §2

P. rettgeri UC 339 = assay: standard microplate test in BHI Agar (MIC), P. rettgeri UC 339; format: cell-based; details: Providencia rettgeri, UC339, 20 h; P. rettgeri UC 339; retest table, group (9), (11), (7α), neamine control; read-out: Minimum Inhibitory Concentration
Procedure: as §1, §2

S. marcescens UC 131 = assay: standard microplate test in BHI Agar (MIC), S. marcescens UC 131; format: cell-based; details: Serratia marcescens, UC131, 20 h; S. marcescens UC 131; retest table, group (9), (11), (7α), neamine control; read-out: Minimum Inhibitory Concentration
Procedure: as §1, §2

S. flexneri UC 143 = assay: standard microplate test in BHI Agar (MIC), S. flexneri UC 143; format: cell-based; details: Shigella flexneri, UC143, 20 h, retest table, group (9), (11), (7α), neamine control, read-out: Minimum Inhibitory Concentration
Procedure: as §1, §2

S. typhi TG-3 = assay: standard microplate test in BHI Agar (MIC), S. typhi TG-3; format: cell-based; details: Salmonella enterica, 20 h, read-out: Minimum Inhibitory Concentration
Procedure: as §1, §2

NC[C@H]1O[C@H](O[C@H]2[C@H](O)[C@@H](O)[C@H](N)C[C@@H]2N)[C@H](N)[C@@H](O[C@@H]2O[C@H](CO)[C@@H](O)[C@H](O)[C@H]2O)[C@@H]1O [(11), 3'-O-(β-D-glucopyranosyl)neamine]
zone of inhibition at 10000 µg/mL (B. cereus; Bacillus cereus, B. cereus, 10 mg/ml): 16 mm | active against Bacillus cereus (B. cereus; conclusion in words from the above results): active | MIC (S. aureus UC 76): 1000 µg/mL (≈ 2060 µM) | MIC (S. hemolyticus UC 152): 1000 µg/mL (≈ 2060 µM) | MIC (St. faecalis UC 694): 1000 µg/mL (≈ 2060 µM) | MIC (E. coli UC 45): 1000 µg/mL (≈ 2060 µM) | MIC (P. vulgaris UC 93): 1000 µg/mL (≈ 2060 µM) | MIC (K. pneumoniae UC 58): 1000 µg/mL (≈ 2060 µM) | MIC (Ps. aeruginosa UC 95): 1000 µg/mL (≈ 2060 µM) | MIC (D. pneumoniae UC 41): 1000 µg/mL (≈ 2060 µM) | MIC (P. mirabilis A-63): 1000 µg/mL (≈ 2060 µM) | MIC (P. morgani UC 3186): 1000 µg/mL (≈ 2060 µM) | MIC (P. rettgeri UC 339): 1000 µg/mL (≈ 2060 µM) | MIC (S. marcescens UC 131): 1000 µg/mL (≈ 2060 µM) | MIC (S. flexneri UC 143): 1000 µg/mL (≈ 2060 µM) | MIC (S. typhi TG-3): 1000 µg/mL (≈ 2060 µM)
